Results: patent US6852734B2, “Indole derivatives exhibiting chymase-inhibitory activities and process for preparation thereof” (Meiji Seika Kaisha, Ltd., priority 2000, dated 2005)

Molecular target: T1, active-type human chymase (Homo sapiens, UniProt P23946)
T1 construct: made in house
T1 sequence (P23946 22-247): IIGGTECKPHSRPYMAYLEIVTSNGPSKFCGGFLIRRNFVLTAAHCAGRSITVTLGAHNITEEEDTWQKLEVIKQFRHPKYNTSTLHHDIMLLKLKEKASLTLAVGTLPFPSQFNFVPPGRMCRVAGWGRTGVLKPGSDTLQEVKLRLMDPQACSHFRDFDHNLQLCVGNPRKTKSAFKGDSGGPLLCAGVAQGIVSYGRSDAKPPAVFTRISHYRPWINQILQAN
Assay: Chymase inhibitory activity (Test Example 1; hydrolysis of succinyl-alanyl-histidyl-prolyl-phenylalanyl-p-nitroanilide, absorbance at 405 nm)
Format: biochemical
Details: recombinant active-type human chymase, 0.5 mM p-nitroanilide substrate, Buffer A pH 8.0, room temperature, 5 minutes; read-out: Chymase inhibitory activity IC50 (molar concentration)
Method: • (a) The preparation of the enzyme chymase was carried out as follows. That is, a recombinant pro-type human chymase to be used had been prepared in accordance with the method of Urata et al's report [“J. Biol. Chem.”, Vol.266, p.17173 (1991)]. Further, the chymase product as preliminarily purified was activated in accordance with the method of Murakami et al's report [“J. Biol. Chem.”, Vol.270, p.2218 (1991)]. The resulting activated chymase product was purified with heparin Sepharose to afford an active-type human chymase. • (b) To 50 μl of Buffer A (comprising 0.5-3.0M NaCl and 50 mM tris-HCl, pH 8.0) containing 1-5 ng of the active-type human chymase as obtained by the above-mentioned methods, was added 2 μl of a solution in […] which contained an indole derivative of this invention as the substance to be tested. Then, to the resultant mixture, there was added 50 μl of Buffer A containing 0.5 mM of succinyl-alanyl-histidyl-prolyl-phenylalanyl-p-nitroanilide (a product of Backem Co.) as the substrate. The resulting reaction mixture was incubated at room temperature for 5 minutes. The chymase inhibitory activity was assessed by measuring the changes in the absorbance of a light at 405 nm of the resulting reaction solution with the passage of time. The chymase inhibitory activity of the indole derivatives tested of this invention was evaluated in term of IC50 values (in molar concentration, M).
The indole derivatives of this invention as tested in this Example are the compounds of Compound No. 003, 021, 026, 027, 030, 076 and 078 shown in Table 1 above.

| IC50 [nM] | Structure (SMILES) |
| --- | --- |
| 2.64 | Cn1c(=O)c(C(c2cccc(F)c2)c2[nH]c3ccccc3c2CCNC(=O)c2cc(C(F)(F)F)cc(C(F)(F)F)c2)c(O)c2ccccc21 (stereo not shown) [compound 003] |
| 1.4 | COc1ccc(C(=O)OCCc2c(C(c3ccc(C(F)(F)F)cc3)c3c(O)c4ccccc4n(C)c3=O)[nH]c3ccccc23)cc1OC (stereo not shown) [Compound No. 021] |
| 5.11 | Cn1c(=O)c(C(c2ccc(OC(F)(F)F)cc2)c2[nH]c3ccccc3c2CCNS(=O)(=O)c2ccc3ccccc3c2)c(O)c2ccccc21 (stereo not shown) [Compound No. 027] |
| 1.86 | CC(=O)NCCc1c(C(c2ccccc2OC(C)=O)c2c(O)c3ccccc3n(C)c2=O)[nH]c2ccccc12 (stereo not shown) [Compound No. 078] |
| 0.893 | CC(=O)OCCc1c(C(c2cccc(Br)c2)c2c(O)c3ncsc3n(C)c2=O)[nH]c2ccccc12 (stereo not shown) [Compound No. 076] |
| 0.439 | Cn1c(=O)c(C(c2cccc(Br)c2)c2[nH]c3ccccc3c2CCNS(=O)(=O)c2ccc3ccccc3c2)c(O)c2ccccc21 (stereo not shown) [Compound No. 026] |
| 0.587 | Cn1c(=O)c(C(c2ccc(OC(F)(F)F)cc2)c2[nH]c3ccccc3c2CCOC(=O)c2ccccc2)c(O)c2ccccc21 (stereo not shown) [Compound No. 030] |

Molecular target: T2, chymase (Homo sapiens, UniProt P23946)
T2 sequence (P23946 22-247): T1 sequence (P23946 22-247)
Assay: not given
Details: confirmed in PCT/JP99/06738 (WO 00/32587); cited from earlier work

| Structure (SMILES) | chymase inhibitory activity (in words) |
| --- | --- |
| CC(=O)NCCc1c(Cc2c(O)c3ccccc3n(C)c2=O)[nH]c2ccccc12 [SF2809-I] | has a chymase inhibitory activity |
| Cn1c(=O)c(Cc2[nH]c3ccccc3c2CCO)c(O)c2ccccc21 [SF2809-III] | has a chymase inhibitory activity |
| CC(=O)NCCc1c(C(c2ccccc2)c2c(O)c3ccccc3n(C)c2=O)[nH]c2ccccc12 (stereo not shown) [SF2809-V] | has a chymase inhibitory activity |
| Cn1c(=O)c(C(c2ccc(O)cc2)c2[nH]c3ccccc3c2CCO)c(O)c2ccccc21 (stereo not shown) [SF2809-IV] | has a chymase inhibitory activity |
| CC(=O)NCCc1c(C(c2ccc(O)cc2)c2c(O)c3ccccc3n(C)c2=O)[nH]c2ccccc12 (stereo not shown) [SF2809-II] | has a chymase inhibitory activity |
| Cn1c(=O)c(C(c2ccccc2)c2[nH]c3ccccc3c2CCO)c(O)c2ccccc21 (stereo not shown) [SF2809-VI] | has a chymase inhibitory activity |
